Experimental data reported in patent publication US5916881A, “High trehalose content syrup” (Kabushiki Kaisha Hayashibara Seibutsu Kagaku Kenkyujo, priority 1996, dated 1999).
Entries after “also recorded” stand apart in the source; their conditions may differ. Values belong to the compound of their own block, whether it stands above or below them.

Columns and labels:
[1] = Trehalose crystallization inhibitory effect of coexisting saccharides in a trehalose syrup over the water solubility (Experiment 2); type: physicochemical; details: trehalose dissolved in an amount over the water solubility; summary of Table 2
Method: Trehalose was dissolved by heating in water in an amount of 1.5-times the water solubility at 10° C., and the trehalose solution was allowed to stand at a relatively-cold place for checking the trehalose crystallization inhibitory effect by saccharides. […] With this relationship, testing solutions were prepared by dissolving by heating in 100 parts by weight of water in a respective glass beaker 83 parts by weight of trehalose, and a saccharide in an amount of 10% to the trehalose, i.e., 8.3 parts by weight of the saccharide selected from the group consisting of glucose, maltose, isomaltose, lactose, maltotriose, panose, maltotetraose, sorbitol, maltitol, maltotriitol, sucrose, raffinose, erlose, saccharides such as α-glucosyltrehalose or monoglucosyltrehalose, α-maltosyltrehalose or diglucosyltrehalose, and α-maltotriosyltrehalose or triglucosyltrehalose as disclosed in Japanese Patent Kokai No.143,876/95 by the present applicant; a saccharide such as α-isomaltosyl-α-glucoside or monoglucosyltrehalose as disclosed in Japanese Patent Kokai No.217,784/96 by the same applicant; and a saccharide such as α-maltosyl-α-maltoside or diglucosyltrehalose as disclosed in Japanese Patent Application No.167,486/94 by the same applicant. Each solution was allowed to stand in a thermostatic place kept at 5, 10 or 15° C. for one week, followed by macroscopically observing the presence of trehalose crystal for evaluating the trehalose crystallization inhibitory effect by the saccharides.

[2] = Influence of the concentrations of trehalose and of mono-/diglucosyltrehalose on trehalose crystallization (Experiment 3); type: physicochemical; set-up: key to Formation of trehalose crystal: "+" means that it crystallized; "-" means that it did not
Method: The trehalose crystallization inhibitory effect was experimented by dissolving trehalose under heating conditions in water in an amount of 1.5, 2.0, 2.5, 2.8 or 3.3-times the water solubility at 10° C., dissolving in the solution other oligosaccharides having a trehalose structure within their molecules in an amount of 10, 30 or 60% to the trehalose, d.s.b, and allowing the resultant solution to stand at a relatively-low temperature.
Based on the results in Experiment 1, 1.5, 2.0, 2.5, 2.8 and 3.3-times the water solubility of trehalose in 100 parts by weight of water at 10° C. water corresponded to 83, 111, 138, 155 and 182 parts by weight of trehalose anhydride, d.s.b., respectively With this relationship, testing solutions with the composition as shown in Table 3 were prepared by dissolving under heating conditions in a respective glass beaker 100 parts by weight of water, trehalose in a prescribed part by weight, and either monoglucosyltrehalose, i.e., α-glucosyltrehalose or diglucosyltrehalose, i.e., α-maltosyltrehalose in a prescribed ratio, allowing the solution to stand in a thermostatic place kept at 5, 10 or 15° C. for checking the trehalose crystallization inhibitory effect.

Trehalose crystallization inhibitory effect (in words) [1]: specifically and effectively inhibited
SMILES: OC[C@H]1O[C@H](O[C@H]2[C@H](O)[C@@H](O)[C@@H](O[C@H]3O[C@H](CO)[C@@H](O[C@H]4O[C@H](CO)[C@@H](O)[C@H](O)[C@H]4O)[C@H](O)[C@H]3O)O[C@@H]2CO)[C@H](O)[C@@H](O)[C@@H]1O [α-Maltosyl-α-maltoside, α-maltosyl-α-maltoside]

Trehalose crystallization inhibitory effect (in words) [1]: specifically and effectively inhibited
SMILES: OC[C@H]1O[C@H](OC[C@H]2O[C@H](O[C@H]3O[C@H](CO)[C@@H](O)[C@H](O)[C@H]3O)[C@H](O)[C@@H](O)[C@@H]2O)[C@H](O)[C@@H](O)[C@@H]1O [α-Isomaltosyl-α-glucoside, α-isomaltosyl-α-glucoside]

Trehalose crystallization inhibitory effect (in words) [1]: specifically and effectively inhibited
Formation of trehalose crystal ([2]; water 100, trehalose 83, coexisting saccharide 8.3 parts by weight, 5° C. (1.7-times solubility)): -
Formation of trehalose crystal ([2]; water 100, trehalose 83, coexisting saccharide 8.3 parts by weight, 10° C. (1.5-times solubility)): -
Formation of trehalose crystal ([2]; water 100, trehalose 83, coexisting saccharide 8.3 parts by weight, 15° C. (1.3-times solubility)): -
Formation of trehalose crystal ([2]; water 100, trehalose 83, coexisting saccharide 25 parts by weight, 5° C. (1.7-times solubility)): -
Formation of trehalose crystal ([2]; water 100, trehalose 83, coexisting saccharide 25 parts by weight, 10° C. (1.5-times solubility)): -
Formation of trehalose crystal ([2]; water 100, trehalose 83, coexisting saccharide 25 parts by weight, 15° C. (1.3-times solubility)): -
Formation of trehalose crystal ([2]; water 100, trehalose 83, coexisting saccharide 50 parts by weight, 5° C. (1.7-times solubility)): -
Formation of trehalose crystal ([2]; water 100, trehalose 83, coexisting saccharide 50 parts by weight, 10° C. (1.5-times solubility)): -
Formation of trehalose crystal ([2]; water 100, trehalose 83, coexisting saccharide 50 parts by weight, 15° C. (1.3-times solubility)): -
Formation of trehalose crystal ([2]; water 100, trehalose 111, coexisting saccharide 11 parts by weight, 5° C. (2.2-times solubility)): +
Formation of trehalose crystal ([2]; water 100, trehalose 111, coexisting saccharide 11 parts by weight, 10° C. (2.0-times solubility)): -
Formation of trehalose crystal ([2]; water 100, trehalose 111, coexisting saccharide 11 parts by weight, 15° C. (1.8-times solubility)): -
Formation of trehalose crystal ([2]; water 100, trehalose 111, coexisting saccharide 33 parts by weight, 5° C. (2.2-times solubility)): -
Formation of trehalose crystal ([2]; water 100, trehalose 111, coexisting saccharide 33 parts by weight, 10° C. (2.0-times solubility)): -
Formation of trehalose crystal ([2]; water 100, trehalose 111, coexisting saccharide 33 parts by weight, 15° C. (1.8-times solubility)): -
Formation of trehalose crystal ([2]; water 100, trehalose 111, coexisting saccharide 66 parts by weight, 5° C. (2.2-times solubility)): -
Formation of trehalose crystal ([2]; water 100, trehalose 111, coexisting saccharide 66 parts by weight, 10° C. (2.0-times solubility)): -
Formation of trehalose crystal ([2]; water 100, trehalose 111, coexisting saccharide 66 parts by weight, 15° C. (1.8-times solubility)): -
Formation of trehalose crystal ([2]; water 100, trehalose 138, coexisting saccharide 14 parts by weight, 5° C. (2.8-times solubility)): +
Formation of trehalose crystal ([2]; water 100, trehalose 138, coexisting saccharide 14 parts by weight, 10° C. (2.5-times solubility)): +
Formation of trehalose crystal ([2]; water 100, trehalose 138, coexisting saccharide 14 parts by weight, 15° C. (2.2-times solubility)): -
Formation of trehalose crystal ([2]; water 100, trehalose 138, coexisting saccharide 42 parts by weight, 5° C. (2.8-times solubility)): +
Formation of trehalose crystal ([2]; water 100, trehalose 138, coexisting saccharide 42 parts by weight, 10° C. (2.5-times solubility)): +
Formation of trehalose crystal ([2]; water 100, trehalose 138, coexisting saccharide 42 parts by weight, 15° C. (2.2-times solubility)): -
Formation of trehalose crystal ([2]; water 100, trehalose 138, coexisting saccharide 83 parts by weight, 5° C. (2.8-times solubility)): +
Formation of trehalose crystal ([2]; water 100, trehalose 138, coexisting saccharide 83 parts by weight, 10° C. (2.5-times solubility)): +
Formation of trehalose crystal ([2]; water 100, trehalose 138, coexisting saccharide 83 parts by weight, 15° C. (2.2-times solubility)): -
Formation of trehalose crystal ([2]; water 100, trehalose 155, coexisting saccharide 16 parts by weight, 5° C. (3.1-times solubility)): +
Formation of trehalose crystal ([2]; water 100, trehalose 155, coexisting saccharide 16 parts by weight, 10° C. (2.8-times solubility)): +
Formation of trehalose crystal ([2]; water 100, trehalose 155, coexisting saccharide 16 parts by weight, 15° C. (2.5-times solubility)): +
Formation of trehalose crystal ([2]; water 100, trehalose 155, coexisting saccharide 46 parts by weight, 5° C. (3.1-times solubility)): +
Formation of trehalose crystal ([2]; water 100, trehalose 155, coexisting saccharide 46 parts by weight, 10° C. (2.8-times solubility)): +
Formation of trehalose crystal ([2]; water 100, trehalose 155, coexisting saccharide 46 parts by weight, 15° C. (2.5-times solubility)): +
Formation of trehalose crystal ([2]; water 100, trehalose 155, coexisting saccharide 93 parts by weight, 5° C. (3.1-times solubility)): +
Formation of trehalose crystal ([2]; water 100, trehalose 155, coexisting saccharide 93 parts by weight, 10° C. (2.8-times solubility)): +
Formation of trehalose crystal ([2]; water 100, trehalose 155, coexisting saccharide 93 parts by weight, 15° C. (2.5-times solubility)): +
Formation of trehalose crystal ([2]; water 100, trehalose 182, coexisting saccharide 18 parts by weight, 5° C. (3.7-times solubility)): +
Formation of trehalose crystal ([2]; water 100, trehalose 182, coexisting saccharide 18 parts by weight, 10° C. (3.3-times solubility)): +
Formation of trehalose crystal ([2]; water 100, trehalose 182, coexisting saccharide 18 parts by weight, 15° C. (3.0-times solubility)): +
Formation of trehalose crystal ([2]; water 100, trehalose 182, coexisting saccharide 55 parts by weight, 5° C. (3.7-times solubility)): +
Formation of trehalose crystal ([2]; water 100, trehalose 182, coexisting saccharide 55 parts by weight, 10° C. (3.3-times solubility)): +
Formation of trehalose crystal ([2]; water 100, trehalose 182, coexisting saccharide 55 parts by weight, 15° C. (3.0-times solubility)): +
Formation of trehalose crystal ([2]; water 100, trehalose 182, coexisting saccharide 110 parts by weight, 5° C. (3.7-times solubility)): +
Formation of trehalose crystal ([2]; water 100, trehalose 182, coexisting saccharide 110 parts by weight, 10° C. (3.3-times solubility)): +
Formation of trehalose crystal ([2]; water 100, trehalose 182, coexisting saccharide 110 parts by weight, 15° C. (3.0-times solubility)): +
SMILES: OC[C@H]1O[C@H](O[C@H]2O[C@H](CO)[C@@H](O[C@H]3O[C@H](CO)[C@@H](O)[C@H](O)[C@H]3O)[C@H](O)[C@H]2O)[C@H](O)[C@@H](O)[C@@H]1O [α-Glycosyltrehalose, α-glucosyltrehalose]
Trehalose crystallization inhibitory effect (in words) ([2]; summary of Table 3): satisfactory trehalose crystallization inhibitory effect

SMILES: OC[C@H]1O[C@H](O[C@H]2O[C@H](CO)[C@@H](O[C@H]3O[C@H](CO)[C@@H](O[C@H]4O[C@H](CO)[C@@H](O[C@H]5O[C@H](CO)[C@@H](O)[C@H](O)[C@H]5O)[C@H](O)[C@H]4O)[C@H](O)[C@H]3O)[C@H](O)[C@H]2O)[C@H](O)[C@@H](O)[C@@H]1O [α-Maltotriosyltrehalose, α-maltotriosyltrehalose]
Trehalose crystallization inhibitory effect (in words) [1]: specifically and effectively inhibited; also recorded: relatively-low trehalose crystallization inhibitory effect
